Measurements from a compilation of properties of binary mixtures (doi:10.1016/j.fluid.2020.112621).

Test: xn = mol fraction of the nth substance listed
Conditions: 101 kPa

CCCC[n+]1ccn(C)c1.COP(=O)([O-])OC + CCC(=O)O.CCC(=O)[O-].CC[NH+](CC)CCO
x2 = 0
Conditions | viscosity [mPa·s]
278.15 K | 3503
288.15 K | 1361.1
293.15 K | 895
298.15 K | 609
303.15 K | 426
308.15 K | 305.8
313.15 K | 224.9
318.15 K | 168.9
323.15 K | 129.4
333.15 K | 79.9
338.15 K | 64.25
348.15 K | 43.18
353.15 K | 36.02
358.15 K | 30.38
363.15 K | 25.86
368.15 K | 22.22

CC(=O)O.CC(=O)[O-].CC[NH+](CC)CCO + CCCC[n+]1ccn(C)c1.COP(=O)([O-])OC
viscosity [mPa·s]
Conditions | x1 = 0.0748 | x1 = 0.3316 | x1 = 0.4263 | x1 = 0.5275 | x1 = 0.6343 | x1 = 0.7493 | x1 = 0.8567 | x1 = 1
278.15 K | 2020 | – | 363 | – | 329 | 314 | 310 | 340
283.15 K | 1280.5 | 315 | 254.3 | 234.7 | 229 | – | 210 | 227
288.15 K | 840 | 224.3 | 183.7 | – | 164 | 157.9 | 146.3 | 156.1
293.15 K | – | 164.3 | 135.3 | 124 | 120.6 | – | 104.7 | 110.4
298.15 K | 396 | 123.7 | 102.2 | – | – | 88 | – | 80.2
303.15 K | – | 95.2 | 79 | 72.4 | 70.3 | 67.9 | 57.8 | –
308.15 K | 208 | – | 62.2 | 57 | 55.2 | – | 44.3 | 45.3
313.15 K | 155.8 | 58.3 | 48.55 | – | – | 41.14 | 34.65 | 35.12
318.15 K | 119.1 | 48.01 | 40.43 | 36.97 | 35.71 | 34.54 | – | 27.71
323.15 K | 92.7 | 39.18 | 33.11 | – | – | 28.27 | – | 22.22
328.15 K | – | 32.29 | – | 25.04 | 24.08 | – | 18.26 | 18.08
333.15 K | 58.8 | 24.59 | 20.72 | 18.82 | – | – | 15.16 | 14.9
338.15 K | – | 22.48 | 19.2 | 17.53 | 16.79 | 16.24 | 12.72 | 12.45
343.15 K | 39.38 | 18.97 | 16.24 | 14.82 | 14.16 | – | 10.79 | 10.49
348.15 K | 32.81 | 16.13 | 13.83 | 12.6 | – | 11.59 | 9.24 | –
353.15 K | 27.63 | 12.97 | 11.07 | 10.04 | 9.54 | 9.16 | 7.98 | 7.67
358.15 K | 23.49 | 11.89 | 10.22 | – | 8.82 | 8.46 | – | –
363.15 K | 20.16 | 10.32 | 8.87 | 8.06 | 7.63 | 7.29 | 6.09 | –
368.15 K | 17.45 | 9.01 | 7.75 | – | – | 6.33 | 5.37 | 5.09
373.15 K | 15.23 | 7.79 | 6.7 | 6.06 | 5.71 | 5.43 | 4.76 | 4.5

CCCC[n+]1ccn(C)c1.COP(=O)([O-])OC + CCCCCC(=O)O.CCCCCC(=O)[O-].CC[NH+](CC)CCO
x2 = 0
Conditions | viscosity [mPa·s]
278.15 K | 3503
283.15 K | 2142
288.15 K | 1361.1
293.15 K | 895
308.15 K | 305.8
313.15 K | 224.9
323.15 K | 129.4
328.15 K | 100.9
338.15 K | 64.25
343.15 K | 52.35
348.15 K | 43.18
353.15 K | 36.02
368.15 K | 22.22
373.15 K | 19.25

CC(=O)[O-].CCCC[NH2+]CCO + CCCC[n+]1ccn(C)c1.O=S(=O)([N-]S(=O)(=O)C(F)(F)F)C(F)(F)F
viscosity [mPa·s]
Conditions | x1 = 0.1012 | x1 = 0.2257 | x1 = 0.3002 | x1 = 0.423 | x1 = 0.4998 | x1 = 0.6018 | x1 = 0.6987 | x1 = 0.8008 | x1 = 0.901 | x1 = 1
278.15 K | – | – | – | – | – | – | – | – | – | 6138
283.15 K | – | 183.1 | 226.7 | 353 | 481 | 745 | 1144.5 | – | 2806 | –
288.15 K | 96.2 | 134.7 | – | 248.3 | 331.5 | 499 | 745 | – | 1734.8 | 2230
293.15 K | 74.29 | 101.5 | 121.9 | 179.1 | 234.7 | 344 | 501 | 765 | 1109.3 | 1412.3
298.15 K | 58.45 | – | 92.4 | 132.2 | 170.1 | 243.1 | 346 | – | – | –
303.15 K | 46.77 | 61.09 | 71.45 | 99.7 | – | 176 | 244.7 | – | 495 | 617
308.15 K | 38.01 | 48.63 | – | 76.6 | 95.3 | 130.1 | 177.2 | 251.7 | 343 | –
313.15 K | 31.32 | 39.3 | 44.89 | 59.83 | – | 98.1 | – | – | – | –
318.15 K | 26.13 | – | 36.38 | 47.48 | 57.42 | 75.3 | – | 134.2 | – | 212.7
323.15 K | 22.05 | 26.72 | 29.87 | 38.23 | 45.61 | 58.7 | – | 100.8 | 130.4 | 155.3
328.15 K | 18.81 | – | 24.83 | 31.18 | 36.74 | – | 58.7 | 77 | – | 115.3
333.15 K | 16.19 | 19 | 20.86 | 25.75 | 29.98 | 37.29 | 46.37 | 59.7 | 74.8 | 87
338.15 K | 14.06 | 16.27 | 17.7 | 21.49 | 24.74 | 30.3 | – | 47.02 | 58 | 66.7
343.15 K | 12.31 | – | 15.16 | 18.12 | – | 24.92 | 30.07 | 37.51 | – | –
348.15 K | 10.85 | 12.23 | 13.09 | – | 17.4 | 20.7 | 24.65 | 30.28 | 36.31 | 40.87
353.15 K | 9.63 | 10.72 | 11.4 | 13.24 | 14.79 | 17.37 | 20.42 | 24.73 | – | –
358.15 K | 8.6 | 9.47 | – | – | – | 14.71 | 17.08 | 20.41 | 23.84 | 26.29
363.15 K | 7.73 | 8.41 | 8.82 | – | 10.96 | 12.57 | 14.42 | 17 | 19.63 | –
368.15 K | 6.98 | 7.51 | 7.83 | 8.76 | 9.54 | 10.81 | 12.27 | – | 16.31 | –
373.15 K | 6.33 | 6.75 | – | – | – | 9.37 | 10.52 | 12.11 | 13.67 | –
